Source: patent US20130143927A1, “COMPOUNDS THAT MODULATE INTRACELLULAR CALCIUM” (CalciMedica, Inc., priority 2011, published 2013)

What was measured:
[1] = system: RBL-2H3 cells; assay: Fluorescence-based assay of store-operated calcium entry in RBL-2H3 cells; format: cell-based; conditions: Rattus norvegicus, store-operated calcium entry after thapsigargin, Fluo-4, 50% inhibition of Upslope
Procedure: B. Fluorescence-based Assay of Store-Operated Calcium Entry in RBL-2H3 Cells. Cells:
RBL-2H3 cells are obtained from ATCC and maintained in complete medium with 10% FBS at 37° C./6% CO2.
The day prior to performing the assay, RBL-2H3 cells are plated in 50 μL of complete medium in a 384 well plate. Cells are grown at 37° C./6% CO2 overnight and grow to 50-60% confluence by the next day. On the assay day, 1.5 μM Fluo-4-AM dye (Invitrogen) in complete medium is added and incubated for 1 hour at RT. Cells are washed twice in Ca^2+-free HBSS buffer and 35 μL Ca^2+-free HBSS buffer is added to each well. 10 μL of a test compound prepared in a Ca^2+-free HBSS solution at 4.5× of the desired concentration is added to a well and incubated for 5 minutes at RT. 10 μL of thapsigargin prepared in a Ca^2+-free HBSS solution at 5.5× of the desired concentration (5.5 uM) is added to each well and incubated for an additional 25 minutes. The initial baseline fluorescence signal is measured with a FLIPR^384 (Molecular Devices) plate reader. 5 μL of 12× calcium in HBSS (12 mM) is added and changes in cellular fluorescence are measured with the FLIPR^384 plate reader. In each well, the change in the fluorescent signal as a function of time due to calcium entry into the cell is determined by calculating the difference between the fluorescent signal measured 7 seconds after calcium addition and the initial baseline fluorescence signal at time zero (t=0). This parameter is designated Upslope. The IC50 value is calculated as the concentration at which 50% of the Upslope is inhibited.

[2] = target: T1, recombinant human STIM1 and Orai1 (HEK-293 cells) (Homo sapiens, UniProt Q96D31); assay: Fluorescence-based assay of store-operated calcium entry in Orai1/STIM1 stable cells; format: cell-based; conditions: fluo-4, 50% inhibition of Peak-Basal signal
T1 construct: expressed in transfected cells; host or cells: HEK-293 cells stably expressing both proteins
Procedure: A. Fluorescence-based Assay of Store-Operated Calcium Entry in Orai1/STIM1 Stable Cells.
Cells stably expressing recombinant human STIM1 and Orai1 are generated by transfecting a human Orai1 expression plasmid (pcDNA3.1-Orai1-cmyc) into HEK-293 cells stably overexpressing human STIM1 (Roos et al. 2005 JCB 169(3): 435-445). Colonies of cells stably expressing both STIM1 and Orai1 proteins are selected and then subcloned by limiting dilution. Cells were cultured at 37° C./6% CO2 in complete medium with 10% FBS and appropriate selection markers.
The day prior to performing the assay Orai1/STIM1 stable cells are plated in 50 μL of complete medium at 90-95% confluence in a 384 well plate. Cells are grown at 37° C./6% CO2 overnight. On the day of the assay, 1.5 μM fluo-4-AM (Invitrogen) in complete medium is added to the cells, which are then incubated for 1 hour at RT. Cells are washed once in Ca^2+-free HBSS (Hank's buffered saline solution) and 35 μl of Ca^2+-free HBSS is added to each well. Test compounds are added to wells in a 10 μL Ca^2+-free HBSS solution, prepared at 4.5× the desired final concentration, and incubated for 30 minutes at RT. The initial baseline fluorescence signal is then measured with a FLIPR^384 (Molecular Devices) plate reader. Calcium entry is initiated by adding 5 μl of 10×CaCl2 (10 mM) in HBSS, and changes in cellular fluorescence are measured with the FLIPR^384 plate reader. In each well, the magnitude of the fluorescence signal as a result of calcium entry into the cell is determined by calculating the difference between the peak fluorescence signal measured after calcium addition and the initial baseline fluorescence signal (designated Peak-Basal). IC50 values are typically calculated as the concentration that inhibited 50% of the Peak-Basal signal.

T1 sequence (Q96D31 whole entry): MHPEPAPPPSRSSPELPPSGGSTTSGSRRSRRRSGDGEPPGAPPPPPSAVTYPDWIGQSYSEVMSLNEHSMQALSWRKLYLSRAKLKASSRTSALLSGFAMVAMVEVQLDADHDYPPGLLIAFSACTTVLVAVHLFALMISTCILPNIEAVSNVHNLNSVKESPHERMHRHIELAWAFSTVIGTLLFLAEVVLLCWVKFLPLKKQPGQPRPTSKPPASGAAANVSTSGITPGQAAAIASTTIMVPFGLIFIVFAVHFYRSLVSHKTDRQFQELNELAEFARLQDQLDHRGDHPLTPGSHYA

Row | SMILES | IC50 [1] [nM] | IC50 [2] [nM]
1 | Cn1nc(C(F)(F)F)cc1-c1cnc(NCc2c(F)cccc2F)s1 [Compound 2, N-(2,6-difluorobenzyl)-5-(1-methyl-3-(trifluoromethyl)-1H-pyrazol-5-yl)thiazol-2-amine] | < 600 | 600 to 1200
2 | Cn1nc(C(F)(F)F)cc1-c1cnc(NCc2ccccc2F)s1 [Compound 4, N-(2-fluorobenzyl)-5-(1-methyl-3-(trifluoromethyl)-1H-pyrazol-5-yl)thiazol-2-amine] | < 600 | < 600
3 | Cn1nc(C(F)(F)F)cc1-c1cnc(NCc2c(F)cncc2F)s1 [Compound 11, N-((3,5-difluoropyridin-4-yl)methyl)-5-(1-methyl-3-(trifluoromethyl)-1H-pyrazol-5-yl)thiazol-2-amine] | 600 to 1200 | > 1200
4 | Cc1cc2c(cc1-c1cnc(NCc3c(F)cncc3F)s1)OC(F)(F)O2 [Compound 14, 5-(2,2-difluoro-6-methylbenzo[d][1,3]dioxol-5-yl)-N-((3,5-difluoropyridin-4-yl)methyl)thiazol-2-amine] | < 600 | 600 to 1200

Continued, values first:

Row | IC50 [1] [nM] | IC50 [2] [nM] | SMILES
5 | < 600 | < 600 | Cc1cc2c(cc1-c1cnc(OCc3c(F)cccc3F)s1)OC(F)(F)O2 [Compound 31]
6 | < 600 | < 600 | Cn1nc(C(F)(F)F)cc1-c1cnc(OCc2c(F)cccc2F)s1 [Compound 32, 2-[(2,6-difluorophenyl)methoxy]-5-[1-methyl-3-(trifluoromethyl)pyrazol-5-yl]-1,3-thiazole]
7 | 600 to 1200 | > 1200 | Cn1nc(C(F)(F)F)cc1-c1ccc(NCc2ccccc2F)s1 [Compound 34, N-(2-fluorobenzyl)-5-(1-methyl-3-(trifluoromethyl)-1H-pyrazol-5-yl)thiophen-2-amine]
8 | < 600 | 600 to 1200 | Cn1nc(C(F)(F)F)cc1-c1ccc(NCc2c(F)cccc2F)s1 [Compound 35, N-(2,6-difluorobenzyl)-5-(1-methyl-3-(trifluoromethyl)-1H-pyrazol-5-yl)thiophen-2-amine]
9 | > 1200 | 600 to 1200 | Cc1cc2c(cc1-c1ccc(NCc3c(F)cccc3F)s1)OC(F)(F)O2 [Compound 36, 5-(2,2-difluoro-6-methylbenzo[d][1,3]dioxol-5-yl)-N-(2,6-difluorobenzyl)thiophen-2-amine]
